Holding throughout (experiment): MIC, agar dilution
Common to all, as to assay type: cell-based
A general note: Agar dilution tests growth on a series of plates holding different concentrations.

One assay deals with E. coli ATCC 25922. Conditions: E. coli ATCC 25922.
Assay [1] deals with S. aureus UBMS 88-5 (tetM). Conditions: S. aureus UBMS 88-5 (tetM).
Assay [2] has as its system E. coli UBMS 89-2 (Sensitive). Conditions: E. coli UBMS 89-2 (Sensitive).
The test system of another assay is E. faecalis 12201. Conditions: E. faecalis 12201.
A further assay concerns E. faecalis ATCC 29212. Conditions: E. faecalis ATCC 29212.
In assay [3] the test system is S. aureus UBMS 90-2 (tetM). The note with it: S. aureus UBMS 90-2 (tetM).
In assay [4] the test system is S. aureus UBMS 88-4 (Sensitive). The note with it: S. aureus UBMS 88-4 (Sensitive).
Another assay deals with E. coli UBMS 89-1 (tetM). Conditions: E. coli UBMS 89-1 (tetM).
In assay [5] the test system is S. aureus IVES 1983 (meth. resistant). Conditions: S. aureus IVES 1983 (meth. resistant).
For assay [6], the system named is S. aureus ATCC 29213 (Sensitive). Conditions: S. aureus ATCC 29213 (Sensitive).
In assay [7] the test system is S. aureus IVES 2943 (meth. resistant). Conditions: S. aureus IVES 2943 (meth. resistant).
For assay [8], the system named is S. aureus Smith (Sensitive). The note with it: S. aureus Smith (Sensitive).
In assay [9] the test system is S. aureus UBMS 90-3 (Sensitive). The note with it: S. aureus UBMS 90-3 (Sensitive).
Assay [10] relates to S. aureus UBMS 90-1 (tetM). Conditions: S. aureus UBMS 90-1 (tetM).
The next assay concerns E. coli UBMS 88-1 (tetB). Conditions: E. coli UBMS 88-1 (tetB).
In assay [11] the test system is E. coli UBMS 88-2 (Sensitive). The note with it: E. coli UBMS 88-2 (Sensitive).
Assay [12] concerns S. haemolyticus AVAH 88-3. Conditions: S. haemolyticus AVAH 88-3.
Assay [13] deals with S. aureus UBMS 88-7 (tetK). The note with it: S. aureus UBMS 88-7 (tetK).

In brackets after ≈: the same amount, converted by molar mass.

One may read the MIC as the least concentration at which growth counts as inhibited. Read a high MIC as weaker potency. For “[7S-(7α,10aα) ]-C(9-(Aminocarbonyl)-7-(dimethylamino)-5,5a,6,6a,7,10,10a,12-octahydro-1,8,10a,11-tetrahydroxy-10,12-dioxo-2-naphthacenyl]amino]oxoacetic acid ethyl ester”, the MIC with E. coli ATCC 25922 was 32 mg/L; in [1] it was 32 mg/L; in assay [2] it was over 32 mg/L; in the assay with E. faecalis 12201, 32 mg/L; in the assay on E. faecalis ATCC 29212 it was 32 mg/L; in assay [3], 32 mg/L. Also, the minimum inhibitory concentration (MIC) in assay [4] was 2 mg/L; against E. coli UBMS 89-1 (tetM), over 32 mg/L; in assay [5], over 32 mg/L; in assay [6], 0.25 mg/L; in [7], 32 mg/L; in assay [8], 2 mg/L. Moreover, the MIC in assay [9] was 1 mg/L; in assay [10], over 32 mg/L; with E. coli UBMS 88-1 (tetB), over 32 mg/L; in assay [11], over 32 mg/L; in [12], 4 mg/L; in [13], 8 mg/L.
Consider `CN(C)c1cc(NC(=O)COCc2ccccc2)c(O)c2c1CC1CC3C(N(C)C)C(O)=C(C(N)=O)C(=O)C3(O)C(O)=C1C2=O` (stereo not drawn) [J, 7-(Dimethylamino)-9-([(phenylmethoxy)acetyl)amino]-6-demethyl-6-deoxytetracycline], for which the MIC was 32 mg/L (≈ 51.6 µM) in the assay on E. coli ATCC 25922; 4 mg/L (≈ 6.44 µM) in assay [1]; over 32 mg/L in [2]; 2 mg/L (≈ 3.22 µM) against E. faecalis 12201; 4 mg/L (≈ 6.44 µM) with E. faecalis ATCC 29212; 2 mg/L (≈ 3.22 µM) in assay [3]. The MIC in assay [4] was 2 mg/L (≈ 3.22 µM); in the assay on E. coli UBMS 89-1 (tetM), over 32 mg/L; in assay [5], 4 mg/L (≈ 6.44 µM); in assay [6] it was 0.06 mg/L (≈ 0.0967 µM); in assay [7], 4 mg/L (≈ 6.44 µM); in assay [8], 0.5 mg/L (≈ 0.806 µM). Also, the MIC was 0.5 mg/L (≈ 0.806 µM) in assay [9]; 4 mg/L (≈ 6.44 µM) in assay [10]; over 32 mg/L against E. coli UBMS 88-1 (tetB); over 32 mg/L in assay [11]; 4 mg/L (≈ 6.44 µM) in [12]; 2 mg/L (≈ 3.22 µM) in assay [13].
`CC(=O)OCC(=O)Nc1cc(N(C)C)c2c(c1O)C(=O)C1=C(O)[C@]3(O)C(=O)C(C(N)=O)=C(O)[C@@H](N(C)C)[C@@H]3C[C@@H]1C2` [K, 9-[[(Acetyloxy)acetyl]amino)-7-(dimethylamino)-6-demethyl-6-deoxytetracycline]: the MIC against E. coli ATCC 25922 turned out to be 4 mg/L (≈ 6.99 µM); in [1], 0.25 mg/L (≈ 0.437 µM); in assay [2], 8 mg/L (≈ 14 µM); against E. faecalis 12201, 0.25 mg/L (≈ 0.437 µM); with E. faecalis ATCC 29212, 0.06 mg/L (≈ 0.105 µM); in assay [3], 0.06 mg/L (≈ 0.105 µM). For the same compound, the MIC in assay [4] is 0.12 mg/L (≈ 0.21 µM); in the assay on E. coli UBMS 89-1 (tetM) it was 1 mg/L (≈ 1.75 µM); in assay [5] it was 32 mg/L (≈ 55.9 µM); in [6], “≦0.015 μg/ml”; in assay [7], 32 mg/L (≈ 55.9 µM); in assay [8], “≦0.015 μg/ml”. Moreover, the MIC came to 0.03 mg/L (≈ 0.0524 µM) in assay [9]; 0.25 mg/L (≈ 0.437 µM) in [10]; 16 mg/L (≈ 27.9 µM) in the assay on E. coli UBMS 88-1 (tetB); 4 mg/L (≈ 6.99 µM) in assay [11]; 0.5 mg/L (≈ 0.873 µM) in [12]; 32 mg/L (≈ 55.9 µM) in assay [13].
In the case of `CN(C)c1cc(NC(=O)CN)c(O)c2c1CC1CC3C(N(C)C)C(O)=C(C(N)=O)C(=O)C3(O)C(O)=C1C2=O.O=C(O)C(F)(F)F` (stereo not drawn) [M, 9-[(Aminoacetyl)amino]-7-(dimethylamino)-6-demethyl-6-deoxytetracycline mono(trifluoroacetate)], the minimum inhibitory concentration (MIC) against E. coli ATCC 25922 came out at 2 mg/L; in [1], 1 mg/L; in assay [2], 2 mg/L; in the assay with E. faecalis 12201 it was 0.25 mg/L; in the assay on E. faecalis ATCC 29212, 0.25 mg/L; in [3] it was 0.5 mg/L. In addition, the MIC in assay [4] is 1 mg/L; with E. coli UBMS 89-1 (tetM), 2 mg/L; in assay [5] it was over 32 mg/L; in assay [6] it was 0.5 mg/L; in assay [7], over 32 mg/L; in assay [8] it was 1 mg/L. The MIC is 0.5 mg/L in assay [9]; 2 mg/L in assay [10]; 2 mg/L against E. coli UBMS 88-1 (tetB); 2 mg/L in assay [11]; 1 mg/L in [12]; over 32 mg/L in [13].
As to `CN(C)c1cc(NC(=O)c2cccc(C(F)(F)F)c2)c(O)c2c1CC1CC3C(N(C)C)C(O)=C(C(N)=O)C(=O)C3(O)C(O)=C1C2=O` (stereo not drawn) [U, 7-(Dimethylamino)-9-[[3-(trifluoromethyl)benzoyl)amino]-6-demethyl-6-deoxytetracycline], the MIC result was “≧32 μg/ml” with E. coli ATCC 25922; 1 mg/L (≈ 1.55 µM) in assay [1]; “≧32 μg/ml” in assay [2]; 1 mg/L (≈ 1.55 µM) against E. faecalis 12201; 1 mg/L (≈ 1.55 µM) with E. faecalis ATCC 29212; 1 mg/L (≈ 1.55 µM) in assay [3]. For the same compound, the minimum inhibitory concentration (MIC) in assay [4] was 0.5 mg/L (≈ 0.776 µM); in the assay on E. coli UBMS 89-1 (tetM), over 32 mg/L; in assay [5], 1 mg/L (≈ 1.55 µM); in assay [6], 0.5 mg/L (≈ 0.776 µM); in [7], 1 mg/L (≈ 1.55 µM); in assay [8] it was 1 mg/L (≈ 1.55 µM). Moreover, the minimum inhibitory concentration (MIC) is 0.5 mg/L (≈ 0.776 µM) in [9]; 1 mg/L (≈ 1.55 µM) in assay [10]; over 32 mg/L against E. coli UBMS 88-1 (tetB); over 32 mg/L in [11]; 1 mg/L (≈ 1.55 µM) in assay [12]; 1 mg/L (≈ 1.55 µM) in [13].
With `CC(=O)Nc1cc(I)c2c(c1O)C(=O)C1=C(O)C3(O)C(=O)C(C(N)=O)=C(O)C(N(C)C)C3CC1C2.O=S(=O)(O)O` (stereo not drawn) [H, 9-(Acetylamino)-7-iodo-6-demethyl-6-deoxytetracycline sulfate], the minimal inhibitory concentration (MIC) in the assay with E. coli ATCC 25922 came to 16 mg/L; in [1], 1 mg/L; in assay [2], 16 mg/L; in the assay on E. faecalis 12201 it was 2 mg/L; with E. faecalis ATCC 29212, 0.25 mg/L; in assay [3] it was 0.5 mg/L. Further, the minimum inhibitory concentration (MIC) amounted to 0.25 mg/L in [4]; 128 mg/L against E. coli UBMS 89-1 (tetM); 32 mg/L in [5]; 0.22 mg/L in [6]; 32 mg/L in assay [7]; 0.12 mg/L in [8]. The minimal inhibitory concentration (MIC) in [9] is 0.12 mg/L; in [10] it was 1 mg/L; in assay [11], over 128 mg/L; in assay [12] it was 2 mg/L; in [13] it was 16 mg/L.
For `CN(C)C1C(O)=C(C(N)=O)C(=O)C2(O)C(O)=C3C(=O)c4c(O)c(NC=O)cc(I)c4CC3CC12.O=S(=O)(O)O` (stereo not drawn) [G, 9-(Formylamino)-7-iodo-6-demethyl-6-deoxytetracycline sulfate], the MIC against E. coli ATCC 25922 is 0.5 mg/L; in assay [1], 1 mg/L; in assay [2] it was 1 mg/L; with E. faecalis 12201, 16 mg/L; in the assay with E. faecalis ATCC 29212, 0.25 mg/L; in [3], 0.5 mg/L. For the same compound, the MIC in assay [4] was under 0.015 mg/L; in the assay with E. coli UBMS 89-1 (tetM), 1 mg/L; in assay [5], 32 mg/L; in assay [7] it was 32 mg/L; in assay [8], 0.03 mg/L; in assay [9], 0.03 mg/L. For the same compound, the minimal inhibitory concentration (MIC) in assay [10] was 4 mg/L; in the assay with E. coli UBMS 88-1 (tetB) it was over 32 mg/L; in [11], 1 mg/L; in [12], 0.06 mg/L; in [13] it was 16 mg/L.
On to `CN(C)c1cc(NC(=O)C(F)(F)F)c(O)c2c1C[C@H]1C[C@H]3[C@H](N(C)C)C(O)=C(C(N)=O)C(=O)[C@@]3(O)C(O)=C1C2=O.O=S(=O)(O)O` [I, 7-(Dimethylamino)-9-((trifluoroacetyl)amino]-g-demethyl-6-deoxytetracycline sulfate], for which the MIC in the assay with E. coli ATCC 25922 turned out to be 32 mg/L; in [1], 16 mg/L; in assay [2] it was 32 mg/L; in the assay with E. faecalis 12201, 16 mg/L; against E. faecalis ATCC 29212, 8 mg/L; in assay [3], 16 mg/L. The MIC in [4] worked out at 8 mg/L; in the assay with E. coli UBMS 89-1 (tetM), 32 mg/L; in assay [5] it was 32 mg/L; in [6], 1 mg/L; in assay [8], 8 mg/L; in assay [9], 4 mg/L. The MIC is 16 mg/L in assay [10]; over 32 mg/L in the assay with E. coli UBMS 88-1 (tetB); 32 mg/L in [11]; 0.5 mg/L in assay [12]; 16 mg/L in assay [13].
